Publication PMC8065421, “Repurposing Drugs for Mayaro Virus: Identification of EIDD-1931, Favipiravir and Suramin as Mayaro Virus Inhibitors” (Microorganisms, 2021)
Read-outs that look alike come from different tables or passages of the source.

Experiments:
MAYV [1] = test: Delay of treatment assay; format: cell-based, Mayaro virus (MAYV) strain TC625; conditions: for reduction of intracellular RNA by time of addition: EIDD-1931 25 µM, favipiravir 300 µM, suramin 500 µM, qRT-PCR
in vitro = conditions: African green monkey
MAYV [2] = test: Antiviral CPE reduction assay; format: cell-based, Mayaro virus (MAYV) strain TC625; conditions: for Activity against MAYV (inhibition of MAYV-induced CPE): MOI 0.01
MAYV [3] = format: cell-based, Mayaro virus (MAYV) strain TC625; conditions: for decrease in relative infectivity (ratio infectious virus vs. viral RNA): supernatant
Vero cells = test: Cytotoxicity assay on uninfected cells
[4] = Cytotoxicity assay on uninfected cells; conditions: African green monkey
MAYV [5] = conditions: virus yield assay, cited from earlier work
CHIKV = conditions: against CHIKV; cited from earlier work

Cc1ccc(C(=O)Nc2ccc(S(=O)(=O)O)c3cc(S(=O)(=O)O)cc(S(=O)(=O)O)c23)cc1NC(=O)c1cccc(NC(=O)Nc2cccc(C(=O)Nc3cc(C(=O)Nc4ccc(S(=O)(=O)O)c5cc(S(=O)(=O)O)cc(S(=O)(=O)O)c45)ccc3C)c2)c1 [Suramin]
decrease of infectious virus titers (MAYV [1]): ~ −2 log10 | reduction of intracellular RNA by time of addition (MAYV [1]; […], 10 h pi): only when added at early time points (2 h prior to infection and 0 h pi) | CC50 at 3 days (in vitro): > 2000 µM | EC50 (MAYV [2]; Mayaro virus, Vero, 72 h): 124 ± 26 µM | decrease in infectious virus (MAYV [3]): ~ 5 log10 | reduction in viral RNA and infectious virus content with increasing concentrations (MAYV [3]): dose-dependent reduction | relative infectivity of MAYV (MAYV [3]; all concentrations with the exception of the highest tested (500 µM)): not affected

NC(=O)c1ncn([C@@H]2O[C@H](CO)[C@@H](O)[C@H]2O)n1 [Ribavirin, 1-(β-D-ribofuranosyl)-1H-1,2,4-triazole-3-carboxamide]
EC50 (MAYV [2]; Mayaro virus, Vero, 72 h): > 200 µM | Activity against MAYV (inhibition of MAYV-induced CPE) (MAYV [2]; Vero cells): not active against MAYV | signs of toxicity determined microscopically (Vero cells; concentrations higher than 200 µM): signs of toxicity were determined microscopically at higher concentrations | CC50 at 3 days [4]: 250 ± 81 µM | EC50 (MAYV [5]; strain TR4675, MOI 0.05): 62.5 µM | EC50 (MAYV [5]; strain TR4675, MOI 0.1): 255 µM | blocking MAYV infectivity (MAYV [3]): not effective

Nc1ncnc2c([C@@H]3N[C@H](CO)[C@@H](O)[C@H]3O)c[nH]c12 [Galidesivir]
EC50 (MAYV [2]; Mayaro virus, Vero, 72 h): > 100 µM | Activity against MAYV (inhibition of MAYV-induced CPE) (MAYV [2]; Vero cells): not able to inhibit MAYV | CC50 at 3 days [4]: 238 ± 36 µM

C[C@@]1(O)[C@H](O)[C@@H](CO)O[C@H]1n1ccc2c(N)ncnc21 [7DMA, 7-Deaza-2′-C-methyladenosine]
EC50 (MAYV [2]; Mayaro virus, Vero, 72 h): > 60 µM | Activity against MAYV (inhibition of MAYV-induced CPE) (MAYV [2]; Vero cells): not able to inhibit MAYV | CC50 at 3 days [4]: > 600 µM

C[C@@]1(O)[C@H](O)[C@@H](CO)O[C@H]1n1ccc(N)nc1=O [2’CMC, 2′-C-methylcytidine]
EC50 (MAYV [2]; Mayaro virus, Vero, 72 h): > 20 µM | Activity against MAYV (inhibition of MAYV-induced CPE) (MAYV [2]; Vero cells): not able to inhibit MAYV | CC50 at 3 days [4]: 167 ± 7 µM

NC(=O)c1nc(F)c[nH]c1=O [Favipiravir]
reduction of viral titers (MAYV [1]; 300 µM, added until 2 h pi, […], 10 h pi): 2–3 log10 | reduction of intracellular RNA by time of addition (MAYV [1]; […], 10 h pi): only when added at early time points (2 h prior to infection and 0 h pi) | EC50 (MAYV [2]; Mayaro virus, Vero, 72 h): 79 ± 4 µM | CC50 at 3 days [4]: 2840 ± 86 µM | decrease in infectious virus (MAYV [3]): ~ 8 log10 | reduction in viral RNA and infectious virus content with increasing concentrations (MAYV [3]): dose-dependent reduction | inhibitory effect in virus yield assay (MAYV [3]; 75 µM): inhibitory effect was still observed | decrease in relative infectivity (ratio infectious virus vs. viral RNA) (MAYV [3]; starting from 75 µM): ~ 100 fold

CCN(CC)CCCC(C)Nc1ccnc2cc(Cl)ccc12 (centres unmarked) [Chloroquine]
EC50 (MAYV [2]; Mayaro virus, Vero, 72 h): > 200 µM | Activity against MAYV (inhibition of MAYV-induced CPE) (MAYV [2]; Vero cells): did not show activity against MAYV | EC50 (CHIKV): ~10 µM

CCOC(=O)c1c(CSc2ccccc2)n(C)c2cc(Br)c(O)c(CN(C)C)c12 [Arbidol]
EC50 (MAYV [2]; Mayaro virus, Vero, 72 h): > 60 µM | Activity against MAYV (inhibition of MAYV-induced CPE) (MAYV [2]; Vero cells): did not show activity against MAYV | CC50 at 3 days [4]: > 100 µM | EC50 (CHIKV): 12 µM

O=c1nc(NO)ccn1[C@@H]1O[C@H](CO)[C@@H](O)[C@H]1O [EIDD-1931, β-D-N^4-hydroxycytidine]
activity on infectious virus (MAYV [1]; 25 µM, added at 6 h pi): modest activity | decrease in infectious virus (MAYV [1]; 25 µM, added until 4 h pi, […], 10 h pi): 2–3 log10 | reduction of intracellular RNA by time of addition (MAYV [1]; […], 10 h pi): still resulted in a reduction when added until 2 h pi | EC50 (MAYV [2]; Vero cells, MAYV MOI 0.01, day 3 pi, MTS/PMS read-out): 1.6 ± 0.5 µM | CC50 (Vero cells; uninfected Vero cells, day 3, microscopically or MTS/PMS): > 100 µM | decrease in infectious virus (MAYV [3]): ~ 8 log10 | reduction in viral RNA and infectious virus content with increasing concentrations (MAYV [3]): dose-dependent reduction | inhibitory effect in virus yield assay (MAYV [3]; 3.1 µM): inhibitory effect was still observed | decrease in relative infectivity (ratio infectious virus vs. viral RNA) (MAYV [3]; starting from 6 µM): ~ 1000 fold

CCC(CC)COC(=O)[C@H](C)N[P@](=O)(OC[C@H]1O[C@@](C#N)(c2ccc3c(N)ncnn23)[C@H](O)[C@@H]1O)Oc1ccccc1 [Remdesivir]
CC50 at 3 days (in vitro): 297 ± 101 µM | EC50 (MAYV [2]; Mayaro virus, Vero, 72 h): > 100 µM | Activity against MAYV (inhibition of MAYV-induced CPE) (MAYV [2]; Vero cells): not able to inhibit MAYV
